According to patent publication US6737383B1, “Herbicidal oxadiazolidines” (priority 1999, dated 2004):

What was measured:
[1] = system: rice; assay: Test B flood test rice; assay type: in vivo, Oryza sativa
Summary of the method: (§1)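 Read-out is a visual response score from 0 (no effect) to 10 (complete control), assigned by comparison with untreated controls. Treatment was applied at the 2-leaf stage, and plants stayed in the greenhouse for twelve to sixteen days before scoring.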

[2] = system: duck salad; assay: Test B flood test duck salad; assay type: in vivo, Heteranthera limosa
Summary of the method: as §1

[3] = system: velvetleaf; assay: Test B pre/postemergence velvetleaf; assay type: in vivo, Abutilon theophrasti
Summary of the method: (§2)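 Herbicidal effect was estimated by eye on a ten-point control scale after plants spent twelve to sixteen days in a greenhouse following soil or foliar treatment. Foliar sprays targeted plants at one to four leaves; all doses were formulated in a non-phytotoxic solvent with surfactant.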

[4] = system: cocklebur; assay: Test B pre/postemergence cocklebur; assay type: in vivo, Xanthium strumarium
Summary of the method: as §2

[5] = system: rape; assay: Test B pre/postemergence rape; assay type: in vivo, Brassica napus
Summary of the method: as §2

[6] = system: sugar beet; assay: Test B pre/postemergence sugar beet; assay type: in vivo, Beta vulgaris
Summary of the method: as §2

[7] = system: soybean; assay: Test B pre/postemergence soybean; assay type: in vivo, Glycine max
Summary of the method: as §2

[8] = system: surinam grass; assay: Test B pre/postemergence surinam grass; assay type: in vivo, Brachiaria decumbens
Summary of the method: as §2

[9] = system: smallflower flatsedge; assay: Test B flood test smallflower flatsedge; assay type: in vivo, Cyperus difformis
Summary of the method: as §1

[10] = system: bedstraw; assay: Test B pre/postemergence bedstraw; assay type: in vivo, Galium aparine
Summary of the method: as §2

[11] = system: blackgrass; assay: Test B pre/postemergence blackgrass; assay type: in vivo, Alopecurus myosuroides
Summary of the method: as §2

[12] = system: wild oat; assay: Test B pre/postemergence wild oat; assay type: in vivo, Avena fatua
Summary of the method: as §2

[13] = system: giant foxtail; assay: Test B pre/postemergence giant foxtail; assay type: in vivo, Setaria faberii
Summary of the method: as §2

[14] = system: corn; assay: Test B pre/postemergence corn; assay type: in vivo, Zea mays
Summary of the method: as §2

[15] = system: wheat; assay: Test B pre/postemergence wheat; assay type: in vivo, Triticum aestivum
Summary of the method: as §2

[16] = system: morningglory; assay: Test B pre/postemergence morningglory; assay type: in vivo, Ipomoea hederacea
Summary of the method: as §2

[17] = system: bamyardgrass; assay: Test B flood test barnyardgrass; assay type: in vivo, Echinochloa crus-galli
Summary of the method: as §1

[18] = system: pigweed; assay: Test B pre/postemergence pigweed; assay type: in vivo, Amaranthus retroflexus
Summary of the method: as §2

[19] = system: purple nutsedge; assay: Test B pre/postemergence purple nutsedge; assay type: in vivo, Cyperus rotundus
Summary of the method: as §2

[20] = system: crabgrass; assay: Test B pre/postemergence crabgrass; assay type: in vivo, Digitaria sanguinalis
Summary of the method: as §2

[21] = Rate 62 g/ha, headed Pre-emergence (flood test species), scale 0 to 10 (0 no effect, 10 complete control)
[22] = Rate 250 g/ha, Pre-emergence, flood-test species, scale 0 to 10, 0 is no effect, 10 is complete control
[23] = Preemergence, Rate 31 g/ha, visual rating, scale 0 to 10 (0 no effect, 10 complete control)
[24] = Preemergence, Rate 62 g/ha, scale of 0 to 10 where 0 is no effect and 10 is complete control
[25] = Preemergence, Rate 250 g/ha, scale of 0 to 10 where 0 is no effect and 10 is complete control
[26] = Rate 62 g/ha, Postemergence, scale of 0 to 10 where 0 is no effect and 10 is complete control
[27] = Rate 125 g/ha, Postemergence, scale 0 to 10
[28] = Rate 125 g/ha, Preemergence, scale of 0 to 10 where 0 is no effect and 10 is complete control
[29] = Rate 31 g/ha, Postemergence, scale 0 to 10

## CC(C)N(C(=O)n1oc(=O)n(CC#C[Si](C)(C)C)c1=O)c1ccc(F)cc1 [Compound 213]
[1]; [21]
  Rice plant response rating: 0
[1]; [22]
  Rice plant response rating: 0
[2]; [21]
  Ducksalad plant response rating: 0
[2]; [22]
  Ducksalad plant response rating: 0
[3]; [23]
  Velvetleaf plant response rating: 0
[3]; [24]
  Velvetleaf plant response rating: 0
[3]; [25]
  Velvetleaf plant response rating: 0
[3]; [26]
  Velvetleaf plant response rating: 0
[3]; [27]
  Velvetleaf plant response rating: 0
[3]; [28]
  Velvetleaf plant response rating: 0
[3]; Rate 250 g/ha, Postemergence
  Plant response rating (0 to 10; 0 is no effect, 10 is complete control), Velvetleaf: 0
[4]; [24]
  Cocklebur plant response rating: 0
[4]; [29]
  Cocklebur plant response rating: 0
[4]; [26]
  Cocklebur plant response rating: 0
[4]; [27]
  Cocklebur plant response rating: 0
[4]; [28]
  Cocklebur plant response rating: 0
[4]; Rate 250 g/ha, Postemergence
  Plant response rating (0 to 10; 0 is no effect, 10 is complete control), Cocklebur: 0
[5]; [23]
  Rape plant response rating: 0
[5]; [24]
  Rape plant response rating: 0
[5]; [25]
  Rape plant response rating: 0
[5]; [29]
  Rape plant response rating: 0
[5]; [26]
  Rape plant response rating: 0
[5]; [27]
  Rape plant response rating: 2
[5]; [28]
  Rape plant response rating: 0
[5]; Rate 250 g/ha, Postemergence
  Plant response rating (0 to 10; 0 is no effect, 10 is complete control), Rape: 3
[6]; [23]
  Sugarbeets plant response rating: 0
[6]; [24]
  Sugarbeets plant response rating: 0
[6]; [25]
  Sugarbeets plant response rating: 0
[6]; [26]
  Sugarbeets plant response rating: 3
[6]; [27]
  Sugarbeets plant response rating: 3
[6]; [28]
  Sugarbeets plant response rating: 0
[6]; Rate 250 g/ha, Postemergence
  Plant response rating (0 to 10; 0 is no effect, 10 is complete control), Sugarbeets: 4
[7]; [23]
  Soybean plant response rating: 0
[7]; [24]
  Soybean plant response rating: 0
[7]; [25]
  Soybean plant response rating: 0
[7]; [26]
  Soybean plant response rating: 1
[7]; [27]
  Soybean plant response rating: 1
[7]; [28]
  Soybean plant response rating: 0
[7]; Rate 250 g/ha, Postemergence
  Plant response rating (0 to 10; 0 is no effect, 10 is complete control), Soybean: 2
[8]; [23]
  B. signalgrass plant response rating: 0
[8]; [24]
  B. signalgrass plant response rating: 0
[8]; Preemergence, Rate 250 g/ha, scale 0 to 10, 0 is no effect, 10 is complete control
  B. signalgrass plant response rating: 0
[8]; [29]
  B. signalgrass plant response rating: 0
[8]; [26]
  B. signalgrass plant response rating: 0
[8]; Rate 125 g/ha, Postemergence, scale 0 (no effect) to 10 (complete control)
  B. signalgrass plant response rating: 0
[8]; [28]
  B. signalgrass plant response rating: 0
[8]; Rate 250 g/ha, Postemergence
  Plant response rating (0 to 10; 0 is no effect, 10 is complete control), B. signalgrass: 2
[9]; [21]
  S. Flatsedge plant response rating: 0
[9]; [22]
  S. Flatsedge plant response rating: 0
[10]; [23]
  Bedstraw plant response rating: 0
[10]; [24]
  Bedstraw plant response rating: 0
[10]; [25]
  Bedstraw plant response rating: 0
[10]; [29]
  Bedstraw plant response rating: 0
[10]; [26]
  Bedstraw plant response rating: 0
[10]; [27]
  Bedstraw plant response rating: 3
[10]; [28]
  Bedstraw plant response rating: 0
[10]; Rate 250 g/ha, Postemergence
  Plant response rating (0 to 10; 0 is no effect, 10 is complete control), Bedstraw: 3
[11]; [23]
  Blackgrass plant response rating: 0
[11]; [24]
  Blackgrass plant response rating: 0
[11]; [25]
  Blackgrass plant response rating: 0
[11]; [29]
  Blackgrass plant response rating: 0
[11]; [26]
  Blackgrass plant response rating: 0
[11]; [27]
  Blackgrass plant response rating: 0
[11]; [28]
  Blackgrass plant response rating: 0
[11]; Rate 250 g/ha, Postemergence
  Plant response rating (0 to 10; 0 is no effect, 10 is complete control), Blackgrass: 2
[12]; [23]
  Wild oats plant response rating: 0
[12]; [24]
  Wild oats plant response rating: 0
[12]; [25]
  Wild oats plant response rating: 0
[12]; [26]
  Wild oats plant response rating: 0
[12]; [27]
  Wild oats plant response rating: 0
[12]; [28]
  Wild oats plant response rating: 0
[12]; Rate 250 g/ha, Postemergence
  Plant response rating (0 to 10; 0 is no effect, 10 is complete control), Wild oats: 2
[13]; [23]
  Giant foxtail plant response rating: 0
[13]; [24]
  Giant foxtail plant response rating: 0
[13]; [25]
  Giant foxtail plant response rating: 4
[13]; [29]
  Giant foxtail plant response rating: 0
[13]; [26]
  Giant foxtail plant response rating: 0
[13]; [27]
  Giant foxtail plant response rating: 0
[13]; [28]
  Giant foxtail plant response rating: 2
[13]; Rate 250 g/ha, Postemergence
  Plant response rating (0 to 10; 0 is no effect, 10 is complete control), Giant foxtail: 2
[14]; [23]
  Corn plant response rating: 0
[14]; [24]
  Corn plant response rating: 0
[14]; [25]
  Corn plant response rating: 0
[14]; [29]
  Corn plant response rating: 0
[14]; [26]
  Corn plant response rating: 0
[14]; [27]
  Corn plant response rating: 0
[14]; [28]
  Corn plant response rating: 0
[14]; Rate 250 g/ha, Postemergence
  Plant response rating (0 to 10; 0 is no effect, 10 is complete control), Corn: 0
[15]; [23]
  Wheat plant response rating: 0
[15]; [24]
  Wheat plant response rating: 0
[15]; [25]
  Wheat plant response rating: 0
[15]; [26]
  Wheat plant response rating: 0
[15]; [27]
  Wheat plant response rating: 0
[15]; [28]
  Wheat plant response rating: 0
[15]; Rate 250 g/ha, Postemergence
  Plant response rating (0 to 10; 0 is no effect, 10 is complete control), Wheat: 2
[16]; [23]
  Morningglory plant response rating: 0
[16]; [24]
  Morningglory plant response rating: 0
[16]; [25]
  Morningglory plant response rating: 3
[16]; [29]
  Morningglory plant response rating: 5
[16]; [26]
  Morningglory plant response rating: 6
[16]; [27]
  Morningglory plant response rating: 6
[16]; [28]
  Morningglory plant response rating: 0
[16]; Rate 250 g/ha, Postemergence
  Plant response rating (0 to 10; 0 is no effect, 10 is complete control), Morningglory: 7
[17]; [21]
  Barnyardgrass plant response rating: 0
[17]; [22]
  Barnyardgrass plant response rating: 0
[18]; [23]
  Redroot pigweed plant response rating: 0
[18]; [24]
  Redroot pigweed plant response rating: 0
[18]; [25]
  Redroot pigweed plant response rating: 5
[18]; [29]
  Redroot pigweed plant response rating: 0
[18]; [26]
  Redroot pigweed plant response rating: 5
[18]; [27]
  Redroot pigweed plant response rating: 7
[18]; [28]
  Redroot pigweed plant response rating: 4
[18]; Rate 250 g/ha, Postemergence
  Plant response rating (0 to 10; 0 is no effect, 10 is complete control), Redroot pigweed: 7
[19]; [24]
  Nutsedge plant response rating: 0
[19]; [29]
  Nutsedge plant response rating: 0
[19]; [26]
  Nutsedge plant response rating: 0
[19]; [27]
  Nutsedge plant response rating: 0
[19]; [28]
  Nutsedge plant response rating: 0
[19]; Rate 250 g/ha, Postemergence
  Plant response rating (0 to 10; 0 is no effect, 10 is complete control), Nutsedge: 0
[20]; [23]
  Crabgrass plant response rating: 0
[20]; [24]
  Crabgrass plant response rating: 0
[20]; [25]
  Crabgrass plant response rating: 3
[20]; [29]
  Crabgrass plant response rating: 0
[20]; [26]
  Crabgrass plant response rating: 0
[20]; [27]
  Crabgrass plant response rating: 0
[20]; [28]
  Crabgrass plant response rating: 0
[20]; Rate 250 g/ha, Postemergence
  Plant response rating (0 to 10; 0 is no effect, 10 is complete control), Crabgrass: 2
